The assay deals with T1, Zcchc11 enzyme (Homo sapiens, UniProt Q5TAX3).
T1 construct: made in house; host or cells: HEK293 cells (Zcchc11); E. coli Rosetta II (LIN28A)
T1 sequence (Q5TAX3 212-1420): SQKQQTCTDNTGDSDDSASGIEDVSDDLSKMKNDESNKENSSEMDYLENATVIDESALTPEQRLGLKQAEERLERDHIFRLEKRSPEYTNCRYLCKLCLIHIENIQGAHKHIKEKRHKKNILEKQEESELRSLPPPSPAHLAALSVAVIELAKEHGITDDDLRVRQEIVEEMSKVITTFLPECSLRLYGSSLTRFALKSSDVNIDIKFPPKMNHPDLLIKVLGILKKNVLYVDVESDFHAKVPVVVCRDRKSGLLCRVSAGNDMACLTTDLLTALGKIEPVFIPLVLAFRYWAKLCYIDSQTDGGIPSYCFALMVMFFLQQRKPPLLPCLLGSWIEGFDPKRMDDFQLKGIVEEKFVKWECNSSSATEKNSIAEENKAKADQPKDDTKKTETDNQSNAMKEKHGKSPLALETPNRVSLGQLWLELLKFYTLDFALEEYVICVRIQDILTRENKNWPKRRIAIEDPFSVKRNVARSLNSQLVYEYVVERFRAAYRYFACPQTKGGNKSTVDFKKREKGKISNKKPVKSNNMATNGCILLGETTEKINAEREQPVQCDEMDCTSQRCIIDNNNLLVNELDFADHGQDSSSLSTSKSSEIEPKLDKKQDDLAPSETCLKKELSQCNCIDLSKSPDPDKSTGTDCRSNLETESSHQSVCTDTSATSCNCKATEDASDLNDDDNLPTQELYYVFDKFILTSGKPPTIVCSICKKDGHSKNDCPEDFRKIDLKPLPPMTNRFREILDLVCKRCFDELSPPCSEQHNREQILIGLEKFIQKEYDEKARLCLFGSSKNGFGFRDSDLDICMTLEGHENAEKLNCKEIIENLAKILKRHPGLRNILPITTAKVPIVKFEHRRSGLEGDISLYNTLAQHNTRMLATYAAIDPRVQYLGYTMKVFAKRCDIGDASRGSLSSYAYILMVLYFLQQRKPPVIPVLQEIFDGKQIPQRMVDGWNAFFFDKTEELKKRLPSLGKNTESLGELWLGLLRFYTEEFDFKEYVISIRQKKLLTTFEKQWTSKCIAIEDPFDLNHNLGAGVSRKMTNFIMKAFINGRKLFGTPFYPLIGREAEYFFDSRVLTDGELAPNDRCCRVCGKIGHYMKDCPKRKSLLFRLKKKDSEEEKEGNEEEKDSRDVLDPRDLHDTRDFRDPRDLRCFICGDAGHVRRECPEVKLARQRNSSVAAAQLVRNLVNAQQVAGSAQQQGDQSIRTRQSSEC
As to the kind of experiment: TUTase assay (Zcchc11 assay, Lin28a-dependent polyuridylation of pre-let-7). The class given is biochemical. As to conditions: Lin28a-dependent Zcchc11 (Z11) TUTase assay; read-out: Potency Lin28a-dep Z11 IC50. In outline:
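HEK293-expressed human Zcchc11 (residues 212-1420, 0.2 nM) with 10 nM LIN28A and 2 nM 5′-fluorescein pre-let-7, preincubated 30 min at room temperature, pH 7.3. Started with 5 uM UTP; poly(U) tails quenched by 3′-rhodamine A20 probe, read kinetically. IC50 from early-rate four-parameter fit; no-UTP wells define 0%.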
In general, IC50 refers to the concentration needed to halve the response being measured. For `O=C(O)c1cn(-c2ccc(OCCO)cc2)c2cc(N3CCC[C@@H]3COc3ccccn3)c(F)cc2c1=O` [Example 405, (R)-6-fluoro-1-(4-(2-hydroxyethoxy)phenyl)-4-oxo-7-(2-((pyridin-2-yloxy)methyl)pyrrolidin-1-yl)-1,4-dihydroquinoline-3-carboxylic acid], the half-maximal inhibitory concentration (IC50) was not above 1000 nM.

With `COCCOc1ccc(-n2cc(C(=O)O)c(=O)c3cc(F)c(N4CCC[C@@H]4COc4ccccn4)cc32)cc1` [Example 406, (R)-6-fluoro-1-(4-(2-methoxyethoxy)phenyl)-4-oxo-7-(2-((pyridin-2-yloxy)methyl)pyrrolidin-1-yl)-1,4-dihydroquinoline-3-carboxylic acid], the 50% inhibitory concentration (IC50) is not above 1000 nM.

On to `COCc1ccccc1-n1cc(C(=O)O)c(=O)c2cc(F)c(N3CCC[C@@H]3COc3ccccn3)cc21` [Example 407, (R)-6-fluoro-1-(2-(methoxymethyl)phenyl)-4-oxo-7-(2-((pyridin-2-yloxy)methyl)pyrrolidin-1-yl)-1,4-dihydroquinoline-3-carboxylic acid], for which the 50% inhibitory concentration (IC50) fell in the range of 1000 to 10000 nM.

Consider `O=C(O)c1cn(-c2ccc(O)c(Cl)c2)c2cc(N3CCC[C@@H]3COc3ccccn3)c(F)cc2c1=O` [Example 408, (R)-1-(3-chloro-4-hydroxyphenyl)-6-fluoro-4-oxo-7-(2-((pyridin-2-yloxy)methyl)pyrrolidin-1-yl)-1,4-dihydroquinoline-3-carboxylic acid], for which the IC50 was not above 1000 nM.

Turning to `O=C(O)c1cn(-c2ccc(O)c(Cl)c2)c2cc(N3CCC[C@@H]3COc3ccccn3)c(Cl)cc2c1=O` [Example 409, (R)-6-chloro-1-(3-chloro-4-hydroxyphenyl)-4-oxo-7-(2-((pyridin-2-yloxy)methyl)pyrrolidin-1-yl)-1,4-dihydroquinoline-3-carboxylic acid], the IC50 was not above 1000 nM.

For the compound `O=C(O)c1cn(-c2ccc(O)nn2)c2cc(N3CCC[C@@H]3COc3ccccn3)c(F)cc2c1=O` [Example 410, (R)-6-fluoro-1-(6-hydroxypyridazin-3-yl)-4-oxo-7-(2-((pyridin-2-yloxy)methyl)pyrrolidin-1-yl)-1,4-dihydroquinoline-3-carboxylic acid], the IC50 lay within 1000 to 10000 nM.

Turning to `O=C(O)c1cn(-c2cnc(CO)cn2)c2cc(N3CCC[C@@H]3COc3ncccc3Cl)c(Cl)cc2c1=O` [Example 411, (R)-6-chloro-7-(2-(((3-chloropyridin-2-yl)oxy)methyl)pyrrolidin-1-yl)-1-(5-(hydroxy-methyl)pyrazin-2-yl)-4-oxo-1,4-dihydroquinoline-3-carboxylic acid], the IC50 was not above 1000 nM.

Regarding `Cc1cccnc1OC[C@H]1CCCN1c1cc2c(cc1F)c(=O)c(C(=O)O)cn2-c1ccc(NS(C)(=O)=O)cc1` [Example 412, (R)-6-fluoro-7-(2-(((3-methylpyridin-2-yl)oxy)methyl)pyrrolidin-1-yl)-1-(4-(methyl-sulfonamido)phenyl)-4-oxo-1,4-dihydroquinoline-3-carboxylic acid], the IC50 was not above 1000 nM.

For `COCCNc1ccc(-n2cc(C(=O)O)c(=O)c3cc(Cl)c(N4CCC[C@@H]4COc4ncccc4Cl)cc32)cn1` [Example 413, (R)-6-chloro-7-(2-(((3-chloropyridin-2-yl)oxy)methyl)pyrrolidin-1-yl)-1-(6-((2-methoxyethyl)amino)pyridin-3-yl)-4-oxo-1,4-dihydroquinoline-3-carboxylic acid], the IC50 is not above 1000 nM.

In the case of `O=C(O)c1cn(-c2ccc(O)nc2)c2cc(N3CCC[C@@H]3COc3ncccc3Cl)c(Cl)cc2c1=O` [Example 414, (R)-6-chloro-7-(2-(((3-chloropyridin-2-yl)oxy)methyl)pyrrolidin-1-yl)-1-(6-hydroxy-pyridin-3-yl)-4-oxo-1,4-dihydroquinoline-3-carboxylic acid], the IC50 is not above 1000 nM.

With `COCCOc1ccc(-n2cc(C(=O)O)c(=O)c3cc(Cl)c(N4CCC[C@@H]4COc4ncccc4Cl)cc32)cn1` [Example 415, (R)-6-chloro-7-(2-(((3-chloropyridin-2-yl)oxy)methyl)pyrrolidin-1-yl)-1-(6-(2-methoxy-ethoxy)pyridin-3-yl)-4-oxo-1,4-dihydroquinoline-3-carboxylic acid], the IC50 is not above 1000 nM.

Take `CN(C)CCNc1ccc(-n2cc(C(=O)O)c(=O)c3cc(Cl)c(N4CCC[C@@H]4COc4ncccc4Cl)cc32)cn1` [Example 416, (R)-6-chloro-7-(2-(((3-chloropyridin-2-yl)oxy)methyl)pyrrolidin-1-yl)-1-(6-((2-(dimethylamino)ethyl)amino)pyridin-3-yl)-4-oxo-1,4-dihydroquinoline-3-carboxylic acid]: the half-maximal inhibitory concentration (IC50) was not above 1000 nM.

On to `CNc1ccc(-n2cc(C(=O)O)c(=O)c3cc(Cl)c(N4CCC[C@@H]4COc4ncccc4Cl)cc32)cn1` [Example 417, (R)-6-chloro-7-(2-(((3-chloropyridin-2-yl)oxy)methyl)pyrrolidin-1-yl)-1-(6-(methylamino)pyridin-3-yl)-4-oxo-1,4-dihydroquinoline-3-carboxylic acid], for which the IC50 is not above 1000 nM.

`CN(C)CCOc1ccc(-n2cc(C(=O)O)c(=O)c3cc(Cl)c(N4CCC[C@@H]4COc4ncccc4Cl)cc32)cn1` [Example 418, (R)-6-chloro-7-(2-(((3-chloropyridin-2-yl)oxy)methyl)pyrrolidin-1-yl)-1-(6-(2-(dimethylamino)ethoxy)pyridin-3-yl)-4-oxo-1,4-dihydroquinoline-3-carboxylic acid]: the IC50 was not above 1000 nM.

As for `COCCOc1cnc(-n2cc(C(=O)O)c(=O)c3cc(Cl)c(N4CCC[C@@H]4COc4ncccc4Cl)cc32)cn1` [Example 419, (R)-6-chloro-7-(2-(((3-chloropyridin-2-yl)oxy)methyl)pyrrolidin-1-yl)-1-(5-(2-methoxy-ethoxy)pyrazin-2-yl)-4-oxo-1,4-dihydroquinoline-3-carboxylic acid], the IC50 was not above 1000 nM.

With `COCCN(C)c1ccc(-n2cc(C(=O)O)c(=O)c3cc(Cl)c(N4CCC[C@@H]4COc4ncccc4Cl)cc32)cn1` [Example 420, (R)-6-chloro-7-(2-(((3-chloropyridin-2-yl)oxy)methyl)pyrrolidin-1-yl)-1-(6-((2-methoxy-ethyl)(methyl)amino)pyridin-3-yl)-4-oxo-1,4-dihydroquinoline-3-carboxylic acid], the half-inhibitory concentration (IC50) is not above 1000 nM.

As for `CN(C)c1ccc(-n2cc(C(=O)O)c(=O)c3cc(Cl)c(N4CCC[C@@H]4COc4ncccc4Cl)cc32)cn1` [Example 421, (R)-6-chloro-7-(2-(((3-chloropyridin-2-yl)oxy)methyl)pyrrolidin-1-yl)-1-(6-(dimethyl-amino)pyridin-3-yl)-4-oxo-1,4-dihydroquinoline-3-carboxylic acid], the IC50 was not above 1000 nM.

Take `O=C(O)c1cn(-c2ccc(N3CCC3)nc2)c2cc(N3CCC[C@@H]3COc3ncccc3Cl)c(Cl)cc2c1=O` [Example 422, (R)-1-(6-(azetidin-1-yl)pyridin-3-yl)-6-chloro-7-(2-(((3-chloropyridin-2-yl)oxy)methyl)pyrrolidin-1-yl)-4-oxo-1,4-dihydroquinoline-3-carboxylic acid]: the half-inhibitory concentration (IC50) is not above 1000 nM.

As for `O=C(O)c1cn(-c2ccc(N3CC(O)C3)nc2)c2cc(N3CCC[C@@H]3COc3ncccc3Cl)c(Cl)cc2c1=O` [Example 423, (R)-6-chloro-7-(2-(((3-chloropyridin-2-yl)oxy)methyl)pyrrolidin-1-yl)-1-(6-(3-hydroxy-azetidin-1-yl)pyridin-3-yl)-4-oxo-1,4-dihydroquinoline-3-carboxylic acid], the IC50 was not above 1000 nM.

`CN(C)c1cnc(-n2cc(C(=O)O)c(=O)c3cc(Cl)c(N4CCC[C@@H]4COc4ncccc4Cl)cc32)cn1` [Example 424, (R)-6-chloro-7-(2-(((3-chloropyridin-2-yl)oxy)methyl)pyrrolidin-1-yl)-1-(5-(dimethylamino)pyrazin-2-yl)-4-oxo-1,4-dihydroquinoline-3-carboxylic acid]: the IC50 was not above 1000 nM.

For the compound `O=C(O)c1cn(-c2cnccn2)c2cc(N3CCC[C@@H]3COc3ncccc3Cl)c(Cl)cc2c1=O` [Example 425, (R)-6-chloro-7-(2-(((3-chloropyridin-2-yl)oxy)methyl)pyrrolidin-1-yl)-4-oxo-1-(pyrazin-2-yl)-1,4-dihydroquinoline-3-carboxylic acid], the IC50 is not above 1000 nM.

The values are drawn from US12662491B2 (Redona Therapeutics, Inc., priority 2020, dated 2026).
